Reference: publication PMC9655037, “Alternation of Organ-Specific Exposure in LPS-Induced Pneumonia Mice after the Inhalation of Tetrandrine Is Governed by Metabolizing Enzyme Suppression and Lysosomal Trapping” (International Journal of Molecular Sciences, 2022)

Experiment: Tissue distribution of TET after a single i.t. administration in normal and LPS-treated mice
Details: BALB/c, mouse, 15 mg/kg, 15 mg/kg i.t.; for Kp: other: intratracheal (i.t.), Kp (AUC in tissue divided by AUC in blood); for AUC(0-inf) / Cmax / MRT / Tmax / half-life / AUC(0-t): inhaled or intranasal
Description: The different tissue distribution characteristics of TET in normal and pneumonia model mice via i.t. delivery were investigated. Thirty BALB/c mice were randomly divided into ten groups (n = 3 for each group). Five groups of mice were intratracheally injected with 15 mg/kg TET (dissolved in 22.5 mg/mL aspartic acid solution) as control groups, and the other five groups received i.t. administration of 15 mg/kg TET 6 h after i.t. injection of 50 μL LPS (5 mg/mL) as model groups. One control group and one model group were sacrificed simultaneously at the set time points of 2, 4, 8, 24, and 144 h after the administration of TET. After a cardiac puncture to obtain blood samples, tissue samples including heart, liver, spleen, lung, kidney, stomach, intestine, and brain were immediately harvested and all the tissues were thoroughly rinsed in ice physiological saline. All the tissue samples were weighed and stored with blood samples at −40 °C for LC-MS/MS analysis.
Pharmacokinetic parameters including t1/2, AUC(0-t), AUC(0-∞), and MRT were calculated using WinNonlin 7.0 (Pharsight, CA) by the non-compartmental model. Initial plasma concentration post i.v. (C0-i.v.) was extrapolated from the first three points of the logarithmic plasma concentration. The area under the blood concentration–time curve from t = 0 to infinity (AUCinf) was estimated using the linear trapezoidal rule. Blood clearance (CL) was calculated as the i.v. dose divided by AUCinf. Apparent steady-state distribution volume (Vss) was determined by the clearance multiplied by mean residence time. The distribution volume in the elimination phase (Vz) was determined by the clearance divided by the first-order rate constant of the terminal elimination phase (λz). The tissue partition ratio (Kp) of each tissue was calculated as Equation (1). (1) Kp=AUC(0−∞,tissue)/AUC(0−∞,plasma)

## COc1ccc2cc1Oc1ccc(cc1)C[C@H]1c3cc(c(OC)cc3CCN1C)Oc1c(OC)c(OC)cc3c1[C@H](C2)N(C)CC3 [TET, Tetrandrine]
Adipose / blood, LPS-treated mice, adipose
  Kp: 2.6
Adipose / blood, normal mice, adipose
  Kp: 2.4
adipose, LPS-treated mice
  AUC(0-inf): 816 ± 429 µg·h/mL
  Cmax: 5920 ± 1410 ng/mL
  MRT: 102 ± 57.9 h
  Tmax: 18.7 ± 9.24 h
adipose, normal mice
  AUC(0-inf): 501 ± 88.3 µg·h/mL
  Cmax: 7380 ± 1790 ng/mL
  MRT: 67.7 ± 37.1 h
  Tmax: 5.33 ± 2.31 h
adipose, t1/2, LPS-treated mice
  half-life: 75.2 ± 35.2 h
adipose, t1/2, normal mice
  half-life: 54 ± 21.5 h
blood, LPS-treated mice
  AUC(0-inf): 326 ± 12.9 µg·h/mL
  Cmax: 1940 ± 225 ng/mL
  MRT: 133 ± 26.1 h
  Tmax: 24 h
blood, normal mice
  AUC(0-inf): 249 ± 16.4 µg·h/mL
  Cmax: 2670 ± 50 ng/mL
  MRT: 111 ± 23.1 h
  Tmax: 3.33 ± 1.15 h
blood, t1/2, LPS-treated mice
  half-life: 95.5 ± 17.6 h
blood, t1/2, normal mice
  half-life: 83.2 ± 15.4 h
blood, LPS-treated mice, blood
  Kp: 1
blood, normal mice, blood
  Kp: 1
Brain / blood, LPS-treated mice, brain
  Kp: 0.6
Brain / blood, normal mice, brain
  Kp: 1
brain, LPS-treated mice
  AUC(0-inf): 179 ± 38.4 µg·h/mL
  Cmax: 6430 ± 3790 ng/mL
  MRT: 112 ± 35.4 h
  Tmax: 5.33 ± 2.31 h
brain, normal mice
  AUC(0-inf): 190 ± 51.4 µg·h/mL
  Cmax: 10400 ± 9530 ng/mL
  MRT: 56.8 ± 26.5 h
  Tmax: 2 h
brain, t1/2, LPS-treated mice
  half-life: 92.6 ± 27.2 h
brain, t1/2, normal mice
  half-life: 51.6 ± 17.2 h
Heart / blood, LPS-treated mice, heart
  Kp: 4.3
Heart / blood, normal mice, heart
  Kp: 5.1
heart, LPS-treated mice
  AUC(0-t): 940 ± 381 µg·h/mL
  AUC(0-inf): 4090 ± 3400 µg·h/mL
  Cmax: 10800 ± 4010 ng/mL
  MRT: 643 ± 376 h
  Tmax: 4 h
heart, normal mice
  AUC(0-t): 880 ± 22.2 µg·h/mL
  AUC(0-inf): 1410 ± 21.5 µg·h/mL
  Cmax: 14200 ± 3160 ng/mL
  MRT: 137 ± 0.09 h
  Tmax: 2.67 ± 1.15 h
heart, t1/2, LPS-treated mice
  half-life: 449 ± 259 h
heart, t1/2, normal mice
  half-life: 96.8 ± 6.46 h
In vivo, LPS-treated mice, adipose
  AUC(0-t): 566 ± 163 µg·h/mL
In vivo, LPS-treated mice, blood
  AUC(0-t): 219 ± 17.7 µg·h/mL
In vivo, LPS-treated mice, brain
  AUC(0-t): 129 ± 46.2 µg·h/mL
In vivo, LPS-treated mice, kidney
  AUC(0-t): 7940 ± 1170 µg·h/mL
In vivo, LPS-treated mice, liver
  AUC(0-t): 5890 ± 178 µg·h/mL
In vivo, LPS-treated mice, muscle
  AUC(0-t): 483 ± 89.5 µg·h/mL
In vivo, LPS-treated mice, spleen
  AUC(0-t): 9420 ± 942 µg·h/mL
In vivo, normal mice, adipose
  AUC(0-t): 421 ± 94.4 µg·h/mL
In vivo, normal mice, blood
  AUC(0-t): 175 ± 12.3 µg·h/mL
In vivo, normal mice, brain
  AUC(0-t): 168 ± 60.6 µg·h/mL
In vivo, normal mice, intestine
  AUC(0-t): 1460 ± 134 µg·h/mL
In vivo, normal mice, kidney
  AUC(0-t): 6510 ± 691 µg·h/mL
In vivo, normal mice, liver
  AUC(0-t): 4860 ± 334 µg·h/mL
In vivo, normal mice, lung
  AUC(0-t): 4310 ± 1000 µg·h/mL
In vivo, normal mice, muscle
  AUC(0-t): 359 ± 79.8 µg·h/mL
In vivo, normal mice, spleen
  AUC(0-t): 7940 ± 665 µg·h/mL
In vivo, normal mice, stomach
  AUC(0-t): 929 ± 163 µg·h/mL
Intestine / blood, normal mice, intestine
  Kp: 8.3
intestine, LPS-treated mice
  AUC(0-t): 2390 ± 196 µg·h/mL
  AUC(0-inf): 2590 ± 271 µg·h/mL
  Cmax: 76500 ± 10900 ng/mL
  MRT: 42.4 ± 6.38 h
  Tmax: 2 h
intestine, normal mice
  AUC(0-inf): 1630 ± 130 µg·h/mL
  Cmax: 46700 ± 25900 ng/mL
  MRT: 50.5 ± 2.31 h
  Tmax: 4 h
intestine, t1/2, LPS-treated mice
  half-life: 41.7 ± 4.93 h
intestine, t1/2, normal mice
  half-life: 44.7 ± 1.94 h
intestine, LPS-treated mice, intestine
  Kp: 11 ± 1.35
kidney, LPS-treated mice
  AUC(0-inf): 11000 µg·h/mL
